Entries after “also recorded” stand apart in the source; their conditions may differ.
Columns and labels:
[1] = test system: p65-DNA binding activity induced by TNF; assay: NF-κB p65 DNA-binding activity induced by TNF; assay type: cell-based; details: data not shown
Experimental: NF-κB DNA-binding activity assays. Nuclear extracts were prepared from 10 cm^2 plates of confluent cells using a kit (Active Motif, Carsbad, Calif.). The total protein content of nuclear fractions was quantified by the Bradford method, followed by storage at −80° C. NF-κB DNA-binding activity was measured in nuclear extracts (10 μg protein) using an immunoassay method (TransAM Kit [Active Motif]) employing 96 well plates coated with double-strand oligodeoxynucleotides containing NF-κB consensus binding site (5′-[…]-3′) and anti-p65 antibody, which was detected by secondary horseradish peroxidase (HRP)-conjugated antibody, using a calorimetric substrate with absorbance read at 450 nm within 5 minutes using a spectrophotometer, SpectraMax M5 (Molecular Devices, Sunnyvale, Calif.).

[2] = test system: Anti-Lymphotoxin-β induced NF-κB luciferase activity; assay: NF-κB luciferase in HeLa cells induced by anti-Lymphotoxin-β receptor; assay type: cell-based; details: listed as CID-2858522
Excerpt: FIG. 1 is a flow chart of screening and counter-screenings for selective inhibitors of antigen-receptor induced NF-κB pathway. A total of 114,889 compounds were screened. From a screen of 53,280 commercially available compounds (left column), 519 hits were obtained, of which 248 reconfirmed using the same primary screening assay. […] From these 11 active compounds, one hit, CID-2858522, inhibited PMA/Ionomycin-induced production of cytokine IL-8 by the HEK293 cell line. CID-2858522 was then characterized (right column). PDB was substituted for PMA to confirm suppression of an alternative PKC activator. Pathway selectivity was assessed using panels of cell lines, starting with HEK293 cells in which each of the remaining NF-κB activation pathways was stimulated, showing inhibition only of PMA/Ionomycin-induced NF-κB reporter gene activity (panel 1). […]

Cc1cc2nc(NCCCO)n(CC(=O)c3cc(C(C)(C)C)c(O)c(C(C)(C)C)c3)c2cc1C [Compound 1, 2-(2-(3-Hydroxypropylamino)-5,6-dimethyl-1H-benzo[d]imidazol-1-yl)-1-(3,5-di-tert-butyl-4-hydroxyphenyl)ethanone] was tested, and the “block of p65-DNA binding activity induced by TNF” value [1] was “did not block” and the “suppression of NF-κB luciferase, anti-Lymphotoxin-β in HeLa” value [2] was “failed to inhibit; also recorded: did not suppress”.
